# Results published in PubChem BioAssay AID1996.
# Settings: buffer; pH 7.4; 200.0 µM
row,SMILES,solubility kinetic
1,O=C1CCC(C(=O)Nc2ccccc2N2CCOCC2)=NN1,> 45.3 µg/mL
2,Cc1cc(Cl)ccc1OCCCC(=O)NCCCn1ccnc1,> 50.4 µg/mL
3,O=C(NNC(=S)Nc1ccccc1C(F)(F)F)c1cccnc1,> 51 µg/mL
4,CC(C)(C)c1ccc(-c2noc(-c3ccc4c(c3)CCO4)n2)cc1,0.8 µg/mL
5,O=C(/C=C/c1ccc(Cl)cc1)OCC(=O)c1ccc[nH]1,2.2 µg/mL
6,CCOC(=O)c1c(O)c2ccccc2n(C)c1=O,> 37.1 µg/mL
7,O=C(/C=C/c1ccc(S(=O)(=O)N2CCOCC2)cc1)NC(CO)C(O)c1ccc([N+](=O)[O-])cc1 (stereo not given),> 73.7 µg/mL
8,O=C1/C(=C/c2cccnc2)CC/C1=C\c1cccnc1,17.1 µg/mL
9,Cc1ccc2cccc(OCc3ccc(F)cc3)c2n1,6 µg/mL
10,COc1cc(/C=C2\SC(N)=NC2=O)cc(Cl)c1O,9.6 µg/mL
11,O=C(NNC(=S)NC(=O)c1ccc(F)cc1)c1cccnc1,> 47.7 µg/mL
12,CC(=O)CC(=O)C1C(=O)N(C)C(=O)N(C)C1=O,> 36 µg/mL
13,O=C1/C(=C/c2cccs2)SC(=S)N1c1cccc(O)c1,1 µg/mL
14,CC(=O)n1c2ccccc2c2nc3ccccc3nc21,1.1 µg/mL
15,CC(CCc1ccccc1)NC(=O)CSc1ccccn1 (stereo not given),34.6 µg/mL
16,COc1ccc(NC2CCCN(C(=O)c3c(C)noc3C)C2)cc1 (stereo not given),> 49.4 µg/mL
17,CCOc1ccc(N/C(=N/c2nc(C)cc(C)n2)NC(C)=O)cc1,15.1 µg/mL
18,CC(=O)c1c(C)[nH]c(C(=O)COC(=O)c2cccs2)c1C,6.9 µg/mL
19,Cc1ccc(-c2nc(=S)c3c(n2Cc2cccnc2)CC(C)(C)OC3)cc1,> 56.6 µg/mL
20,COc1cc(/C=C2\SC(N)=NC2=O)ccc1O,34.5 µg/mL

row,SMILES,solubility kinetic
1,COc1ccc(NC(=O)CS(=O)(=O)c2ccc(C)cc2)c(OC)c1,> 52.4 µg/mL
2,O=C(/C=C/c1ccc([N+](=O)[O-])cc1)OCC(=O)c1ccc[nH]1,3 µg/mL
3,O=C(O)c1ccccc1-c1ccccc1C(=O)NCc1ccccc1F,38.4 µg/mL
4,O=C(Nc1cccc([N+](=O)[O-])c1)Nc1cnccn1,1.2 µg/mL
5,COc1ccc(C(=O)NC(=S)N2CCOCC2)cc1[N+](=O)[O-],> 48.8 µg/mL
6,Nc1ccc(-c2nc3ncccc3o2)c(O)c1,3.1 µg/mL
7,Cc1cccc(N(CC(=O)N2CCCCCC2)S(C)(=O)=O)c1,> 48.7 µg/mL
8,O=c1cc(C(F)(F)F)[nH]c2ccc(C(F)(F)F)cc12,> 42.2 µg/mL
9,COc1cc2ccccc2cc1C(=O)Nc1ccccc1Cl,< 0.7 µg/mL
10,NS(=O)(=O)c1ccc(C(=O)Nc2ccc(-c3nc4cccnc4s3)cc2)cc1,2.5 µg/mL
11,CC(C)c1nc2ccccc2n1CC(O)COC1CCCCC1 (stereo not given),> 47.5 µg/mL
12,COC(=O)c1ccc(NC(=O)C2CC(=O)OC2c2ccccc2)cc1 (stereo not given),36 µg/mL
13,Cc1cccc(OP(N)(=O)Oc2cccc(C)c2)c1,40.6 µg/mL
14,Cc1nc2cc(C)c(C)cc2s1,0.7 µg/mL
15,Cc1cc(C)c(S(=O)(=O)NCc2csc(C)n2)c(C)c1,> 46.6 µg/mL
16,Cc1ccc(/C=C2/SC(=O)NC2=S)o1,31.1 µg/mL
17,Cn1cc(C(=O)OCC(=O)Nc2ccccc2)c2ccccc21,7.8 µg/mL
18,Cc1csc(NC(=O)c2ccc(N3CCCC3=O)cc2)n1,4.7 µg/mL
19,COc1ccc(NC(=O)COc2ccc3oc(=O)cc(C)c3c2)cc1,< 0.7 µg/mL
20,CCN(C(=O)c1ccc2c(c1)OCO2)C1CCS(=O)(=O)C1 (stereo not given),> 46.7 µg/mL

row,SMILES,solubility kinetic
1,COc1ccc(CN2C(=O)c3cccc4cccc2c34)cc1F,9.8 µg/mL
2,O=C(Nc1ccccc1C(=O)Nc1cccnc1)c1ccccc1,6.3 µg/mL
3,O=[N+]([O-])c1cccc(S(=O)(=O)NCCc2cccs2)c1,> 46.9 µg/mL
4,CN1CCN(C2CC(=O)N(CCc3ccccc3)C2=O)CC1 (stereo not given),> 45.2 µg/mL
5,N#CC(C(N)=O)=C1CCCCC1,> 24.6 µg/mL
6,CC(NS(=O)(=O)c1ccc2c(c1)CC(=O)N2C)c1ccccc1 (stereo not given),> 49.6 µg/mL
7,Cc1ccc(C)c(NC(=O)CC2Oc3ccccc3NC2=O)c1 (stereo not given),1.1 µg/mL
8,CCOC(=O)CSc1[nH]c2cc(OC)ccc2c1[N+](=O)[O-],29.3 µg/mL
9,Cc1cccc(NC(=O)Nc2ccc(F)cc2)n1,1.6 µg/mL
10,CCN(Cc1ccccc1)C(=O)COC(=O)c1cc(S(=O)(=O)Nc2ccccc2OC)ccc1O,6 µg/mL
11,O=C(N/N=C\c1ccc(O)c([N+](=O)[O-])c1)C1COc2ccccc2O1 (stereo not given),> 51.5 µg/mL
12,CCCCNC(=NCc1cccc(C(F)(F)F)c1)Nc1ccccc1,45.7 µg/mL
13,Cc1ccc2[nH]c3c(c2c1)CCCC3NC(=O)CCl (stereo not given),> 41.5 µg/mL
14,Cc1[nH]n(-c2ccccc2)c(=O)c1C=NCC1CCCO1 (stereo not given),> 42.8 µg/mL
15,COC(=O)C1Cc2ccccc2CN1S(=O)(=O)c1ccc(C)cc1 (stereo not given),19.6 µg/mL
16,COc1ccc(CC(=O)N2CCN(c3ccc(F)cc3)CC2)cc1,38.3 µg/mL
17,CCOC(=O)c1[nH]cnc1C(=O)Nc1ccc(Cl)cc1,2.2 µg/mL
18,Cc1cc(=O)[nH]c(Nc2ccccc2C)n1,> 32.3 µg/mL
19,COc1ccc(C(=O)NC2CCSc3ccccc32)cc1F (stereo not given),2.9 µg/mL
20,COc1ccc(-c2nc(N)ncc2-c2ccc(OC)c(OC)c2)c(O)c1,1 µg/mL
